Experimental data from the NIST ThermoML archive (doi:10.1021/acs.jced.5b00662).
“And” between values parts separate entries of the source, which are not always exact repeats. Equal entries are not always repeated. Numbers after ± are expanded uncertainties.

settings: 283.15 K; 101.33 kPa; Liquid; Sing-around technique in a fixed-path interferometer

Structure (SMILES)	speed of sound [m/s]
OCCOCCO [diethylene glycol]	1615.9 ± 1.6
CCOCCOCCO [3,6-dioxa-1-octanol]	1428.9 ± 2.3
CCOCCO [2-ethoxyethan-1-ol]	1360.6 ± 1.5
COCCOCCOC [2,5,8-trioxanonane]	1340.7 ± 2

same assay, conditions: 283.15 K; 101.33 kPa; Liquid; Vibrating tube method

Structure (SMILES)	mass density [kg/m3]
OCCOCCO [diethylene glycol]	1123.3 ± 2
CCOCCOCCO [3,6-dioxa-1-octanol]	997.1 ± 4.1
CCOCCO [2-ethoxyethan-1-ol]	941.2 ± 2
COCCOCCOC [2,5,8-trioxanonane]	953.7 ± 1.1

same assay, conditions: 288.15 K; 101.33 kPa; Liquid; Concentric cylinders viscometry

Structure (SMILES)	viscosity [mPa·s]
OCCOCCO [diethylene glycol]	47.14 ± 1.9
CCOCCOCCO [3,6-dioxa-1-octanol]	5.157 ± 0.21
CCOCCO [2-ethoxyethan-1-ol]	2.314 ± 0.094
COCCOCCOC [2,5,8-trioxanonane]	1.161 ± 0.048

same assay, conditions: 288.15 K; 101.33 kPa; Liquid; Sing-around technique in a fixed-path interferometer

Structure (SMILES)	speed of sound [m/s]
OCCOCCO [diethylene glycol]	1603.6 ± 1.6
CCOCCOCCO [3,6-dioxa-1-octanol]	1410.5 ± 2.3
CCOCCO [2-ethoxyethan-1-ol]	1342 ± 1.5
COCCOCCOC [2,5,8-trioxanonane]	1320 ± 2

same assay, conditions: 288.15 K; 101.33 kPa; Liquid; Vibrating tube method

Structure (SMILES)	mass density
OCCOCCO [diethylene glycol]	1121.4 ± 2 kg/m3 and 1119.8 ± 2 kg/m3
CCOCCOCCO [3,6-dioxa-1-octanol]	993.9 ± 4.1 kg/m3 and 992.6 ± 4.1 kg/m3
CCOCCO [2-ethoxyethan-1-ol]	936.8 ± 2 kg/m3 and 936.7 ± 2 kg/m3
COCCOCCOC [2,5,8-trioxanonane]	950.2 ± 1.1 kg/m3 and 948.7 ± 1.1 kg/m3

same assay, conditions: 293.15 K; 101.33 kPa; Liquid; Concentric cylinders viscometry

Structure (SMILES)	viscosity [mPa·s]
OCCOCCO [diethylene glycol]	36.02 ± 1.5
CCOCCOCCO [3,6-dioxa-1-octanol]	4.466 ± 0.18
CCOCCO [2-ethoxyethan-1-ol]	2.066 ± 0.084
COCCOCCOC [2,5,8-trioxanonane]	1.081 ± 0.045

same assay, conditions: 293.15 K; 101.33 kPa; Liquid; Sing-around technique in a fixed-path interferometer

Structure (SMILES)	speed of sound [m/s]
OCCOCCO [diethylene glycol]	1591.4 ± 1.6
CCOCCOCCO [3,6-dioxa-1-octanol]	1392.6 ± 2.3
CCOCCO [2-ethoxyethan-1-ol]	1323.9 ± 1.5
COCCOCCOC [2,5,8-trioxanonane]	1299.9 ± 2

same assay, conditions: 293.15 K; 101.33 kPa; Liquid; Vibrating tube method

Structure (SMILES)	mass density
OCCOCCO [diethylene glycol]	1117.8 ± 2 kg/m3 and 1116.2 ± 2 kg/m3
CCOCCOCCO [3,6-dioxa-1-octanol]	989.4 ± 4.1 kg/m3 and 988.2 ± 4.1 kg/m3
CCOCCO [2-ethoxyethan-1-ol]	932.3 ± 2 kg/m3 and 932.2 ± 2 kg/m3
COCCOCCOC [2,5,8-trioxanonane]	945.2 ± 1.1 kg/m3 and 943.8 ± 1.1 kg/m3

same assay, conditions: 298.15 K; 101.33 kPa; Liquid; Concentric cylinders viscometry

Structure (SMILES)	viscosity [mPa·s]
OCCOCCO [diethylene glycol]	28.23 ± 1.1
CCOCCOCCO [3,6-dioxa-1-octanol]	3.811 ± 0.16
CCOCCO [2-ethoxyethan-1-ol]	1.845 ± 0.075
COCCOCCOC [2,5,8-trioxanonane]	1.011 ± 0.042

same assay, conditions: 298.15 K; 101.33 kPa; Liquid; Sing-around technique in a fixed-path interferometer

Structure (SMILES)	speed of sound [m/s]
OCCOCCO [diethylene glycol]	1579.2 ± 1.6
CCOCCOCCO [3,6-dioxa-1-octanol]	1374.6 ± 2.3
CCOCCO [2-ethoxyethan-1-ol]	1305.7 ± 1.5
COCCOCCOC [2,5,8-trioxanonane]	1280 ± 2

same assay, conditions: 298.15 K; 101.33 kPa; Liquid; Vibrating tube method

Structure (SMILES)	mass density
OCCOCCO [diethylene glycol]	1112.7 ± 2 kg/m3 and 1114.2 ± 2 kg/m3
CCOCCOCCO [3,6-dioxa-1-octanol]	983.7 ± 4.1 kg/m3 and 984.9 ± 4.1 kg/m3
CCOCCO [2-ethoxyethan-1-ol]	927.6 ± 2 kg/m3 and 927.7 ± 2 kg/m3
COCCOCCOC [2,5,8-trioxanonane]	938.8 ± 1.1 kg/m3 and 940.2 ± 1.1 kg/m3

same assay, conditions: 303.15 K; 101.33 kPa; Liquid; Concentric cylinders viscometry

Structure (SMILES)	viscosity [mPa·s]
OCCOCCO [diethylene glycol]	22.48 ± 0.91
CCOCCOCCO [3,6-dioxa-1-octanol]	3.328 ± 0.14
CCOCCO [2-ethoxyethan-1-ol]	1.661 ± 0.067
COCCOCCOC [2,5,8-trioxanonane]	0.942 ± 0.039

same assay, conditions: 303.15 K; 101.33 kPa; Liquid; Sing-around technique in a fixed-path interferometer

Structure (SMILES)	speed of sound [m/s]
OCCOCCO [diethylene glycol]	1566.9 ± 1.6
CCOCCOCCO [3,6-dioxa-1-octanol]	1356.8 ± 2.3
CCOCCO [2-ethoxyethan-1-ol]	1286.7 ± 1.5
COCCOCCOC [2,5,8-trioxanonane]	1260.1 ± 2

same assay, conditions: 303.15 K; 101.33 kPa; Liquid; Vibrating tube method

Structure (SMILES)	mass density
OCCOCCO [diethylene glycol]	1109.1 ± 2 kg/m3 and 1110.6 ± 2 kg/m3
CCOCCOCCO [3,6-dioxa-1-octanol]	979.3 ± 4.1 kg/m3 and 980.4 ± 4.1 kg/m3
CCOCCO [2-ethoxyethan-1-ol]	923.1 ± 2 kg/m3
COCCOCCOC [2,5,8-trioxanonane]	933.8 ± 1.1 kg/m3 and 935.2 ± 1.1 kg/m3

same assay, conditions: 308.15 K; 101.33 kPa; Liquid; Concentric cylinders viscometry

Structure (SMILES)	viscosity [mPa·s]
OCCOCCO [diethylene glycol]	18.18 ± 0.74
CCOCCOCCO [3,6-dioxa-1-octanol]	2.933 ± 0.12
CCOCCO [2-ethoxyethan-1-ol]	1.503 ± 0.061
COCCOCCOC [2,5,8-trioxanonane]	0.879 ± 0.036

same assay, conditions: 308.15 K; 101.33 kPa; Liquid; Sing-around technique in a fixed-path interferometer

Structure (SMILES)	speed of sound [m/s]
OCCOCCO [diethylene glycol]	1554.9 ± 1.6
CCOCCOCCO [3,6-dioxa-1-octanol]	1339 ± 2.3
CCOCCO [2-ethoxyethan-1-ol]	1268.6 ± 1.5
COCCOCCOC [2,5,8-trioxanonane]	1240.3 ± 2

same assay, conditions: 308.15 K; 101.33 kPa; Liquid; Vibrating tube method

Structure (SMILES)	mass density
OCCOCCO [diethylene glycol]	1105.5 ± 2 kg/m3 and 1107 ± 2 kg/m3
CCOCCOCCO [3,6-dioxa-1-octanol]	974.8 ± 4.1 kg/m3 and 976 ± 4.1 kg/m3
CCOCCO [2-ethoxyethan-1-ol]	918.5 ± 2 kg/m3
COCCOCCOC [2,5,8-trioxanonane]	928.8 ± 1.1 kg/m3 and 930.2 ± 1.1 kg/m3

same assay, conditions: 313.15 K; 101.33 kPa; Liquid; Concentric cylinders viscometry

Structure (SMILES)	viscosity [mPa·s]
OCCOCCO [diethylene glycol]	14.85 ± 0.6
CCOCCOCCO [3,6-dioxa-1-octanol]	2.592 ± 0.11
CCOCCO [2-ethoxyethan-1-ol]	1.365 ± 0.056
COCCOCCOC [2,5,8-trioxanonane]	0.825 ± 0.034

same assay, conditions: 313.15 K; 101.33 kPa; Liquid; Sing-around technique in a fixed-path interferometer

Structure (SMILES)	speed of sound [m/s]
OCCOCCO [diethylene glycol]	1542.8 ± 1.6
CCOCCOCCO [3,6-dioxa-1-octanol]	1321.7 ± 2.3
CCOCCO [2-ethoxyethan-1-ol]	1250.2 ± 1.5
COCCOCCOC [2,5,8-trioxanonane]	1220.6 ± 2

same assay, conditions: 313.15 K; 101.33 kPa; Liquid; Vibrating tube method

Structure (SMILES)	mass density
OCCOCCO [diethylene glycol]	1101.9 ± 2 kg/m3 and 1103.4 ± 2 kg/m3
CCOCCOCCO [3,6-dioxa-1-octanol]	970.3 ± 4.1 kg/m3 and 971.5 ± 4.1 kg/m3
CCOCCO [2-ethoxyethan-1-ol]	913.8 ± 2 kg/m3 and 913.9 ± 2 kg/m3
COCCOCCOC [2,5,8-trioxanonane]	923.8 ± 1.1 kg/m3 and 925.2 ± 1.1 kg/m3

same assay, conditions: 318.15 K; 101.33 kPa; Liquid; Concentric cylinders viscometry

Structure (SMILES)	viscosity [mPa·s]
OCCOCCO [diethylene glycol]	12.4 ± 0.5
CCOCCOCCO [3,6-dioxa-1-octanol]	2.331 ± 0.097
CCOCCO [2-ethoxyethan-1-ol]	1.247 ± 0.051
COCCOCCOC [2,5,8-trioxanonane]	0.767 ± 0.032

same assay, conditions: 318.15 K; 101.33 kPa; Liquid; Vibrating tube method

Structure (SMILES)	mass density [kg/m3]
OCCOCCO [diethylene glycol]	1099.7 ± 2
CCOCCOCCO [3,6-dioxa-1-octanol]	967 ± 4.1
CCOCCO [2-ethoxyethan-1-ol]	909.3 ± 2
COCCOCCOC [2,5,8-trioxanonane]	920.2 ± 1.1

same assay, conditions: 323.15 K; 101.33 kPa; Liquid; Concentric cylinders viscometry

Structure (SMILES)	viscosity [mPa·s]
OCCOCCO [diethylene glycol]	10.42 ± 0.42
CCOCCOCCO [3,6-dioxa-1-octanol]	2.099 ± 0.087
CCOCCO [2-ethoxyethan-1-ol]	1.143 ± 0.047
COCCOCCOC [2,5,8-trioxanonane]	0.718 ± 0.03

same assay, conditions: 323.15 K; 101.33 kPa; Liquid; Sing-around technique in a fixed-path interferometer

Structure (SMILES)	speed of sound [m/s]
OCCOCCO [diethylene glycol]	1518.8 ± 1.6
CCOCCOCCO [3,6-dioxa-1-octanol]	1286.9 ± 2.3
CCOCCO [2-ethoxyethan-1-ol]	1213.8 ± 1.5
COCCOCCOC [2,5,8-trioxanonane]	1181.7 ± 2

same assay, conditions: 323.15 K; 101.33 kPa; Liquid; Vibrating tube method

Structure (SMILES)	mass density
OCCOCCO [diethylene glycol]	1094.7 ± 2 kg/m3 and 1096.1 ± 2 kg/m3
CCOCCOCCO [3,6-dioxa-1-octanol]	961.3 ± 4.1 kg/m3 and 962.5 ± 4.1 kg/m3
CCOCCO [2-ethoxyethan-1-ol]	904.5 ± 2 kg/m3 and 904.6 ± 2 kg/m3
COCCOCCOC [2,5,8-trioxanonane]	913.7 ± 1.1 kg/m3 and 915.2 ± 1.1 kg/m3

same assay, conditions: 328.15 K; 101.33 kPa; Liquid; Concentric cylinders viscometry

Structure (SMILES)	viscosity [mPa·s]
OCCOCCO [diethylene glycol]	8.849 ± 0.36
CCOCCOCCO [3,6-dioxa-1-octanol]	1.901 ± 0.079
CCOCCO [2-ethoxyethan-1-ol]	1.051 ± 0.043
COCCOCCOC [2,5,8-trioxanonane]	0.674 ± 0.028

same assay, conditions: 328.15 K; 101.33 kPa; Liquid; Vibrating tube method

Structure (SMILES)	mass density [kg/m3]
OCCOCCO [diethylene glycol]	1092.5 ± 2
CCOCCOCCO [3,6-dioxa-1-octanol]	958.1 ± 4.1
CCOCCO [2-ethoxyethan-1-ol]	899.9 ± 2
COCCOCCOC [2,5,8-trioxanonane]	910.1 ± 1.1

same assay, conditions: 333.15 K; 101.33 kPa; Liquid; Concentric cylinders viscometry

Structure (SMILES)	viscosity [mPa·s]
OCCOCCO [diethylene glycol]	7.57 ± 0.31
CCOCCOCCO [3,6-dioxa-1-octanol]	1.718 ± 0.071
CCOCCO [2-ethoxyethan-1-ol]	0.962 ± 0.039
COCCOCCOC [2,5,8-trioxanonane]	0.633 ± 0.026

same assay, conditions: 333.15 K; 101.33 kPa; Liquid; Sing-around technique in a fixed-path interferometer

Structure (SMILES)	speed of sound [m/s]
OCCOCCO [diethylene glycol]	1494.5 ± 1.6
CCOCCOCCO [3,6-dioxa-1-octanol]	1252.6 ± 2.3
